Data from patent publication US12673954B2 (BRISTOL-MYERS SQUIBB COMPANY, priority 2021, dated 2026).
Like-named read-outs stand apart in the source and are kept apart here.

Tests used:
[1] = test system: IRF pathway, THP1-Dual™ cells; experiment: STING reporter assay in THP1-Dual cells, IRF pathway (Lucia luciferase, QUANTI-Luc); format: cell-based, human; details: Homo sapiens, THP1-Dual, 20 h, read-out: IRF (EC50 μM)
Outline: (§1)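 THP-1-derived dual-reporter cells treated with serially diluted compounds (final top concentration 100 μM) for 20 h at 37° C. NF-κB read as SEAP via QUANTI-Blue at OD620; IRF read as Lucia luminescence via QUANTI-Luc after 5 min. 100% activation set by 100 μM cGAMP, baseline by DMSO.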

[2] = test system: NF-κB pathway, THP1-Dual™ cells; experiment: STING reporter assay in THP1-Dual cells, NF-κB pathway (SEAP, QUANTI-Blue); format: cell-based, human; details: Homo sapiens, THP1-Dual, 20 h, read-out: NFkB (EC50 μM)
Outline: as §1

[3] = THP1-Dual cells, 10% human plasma, 20 hours, Lucia luciferase, 100% activation = 100 μM cGAMP
[4] = THP1-Dual cells, 10% human plasma, 20 hours, SEAP, 100% activation = 100 μM cGAMP

Compound	EC50 [1, 3] [µM]	EC50 [2, 4] [µM]	EC50 [1] [µM]	EC50 [2] [µM]
CC(C)OC(=O)c1ccc(F)c2cc(CNC(=O)c3cnn4cccnc34)oc12 [EXAMPLE 224, Isopropyl 4-fluoro-2-((pyrazolo[1,5-a]pyrimidine-3-carboxamido)methyl)benzofuran-7-carboxylate]	5.9	4		
Cc1ccc(C(=O)OC(C)C(F)(F)F)c2oc(CNC(=O)c3cnn4cccnc34)cc12 (centres unmarked) [EXAMPLE 225, 1,1,1-Trifluoropropan-2-yl 4-methyl-2-((pyrazolo[1,5-a]pyrimidine-3-carboxamido)methyl)benzofuran-7-carboxylate]	7.5	7.5		
O=C(OCC(F)(F)F)c1cc(F)c(F)c2cc(CNC(=O)c3cnn4cccnc34)oc12 [EXAMPLE 226]	1.4	1.3		
CC(OC(=O)c1cc(F)c(F)c2cc(CNC(=O)c3cnn4cccnc34)oc12)C(F)(F)F (centres unmarked) [EXAMPLE 227, 1,1,1-Trifluoropropan-2-yl 4,5-difluoro-2-((pyrazolo[1,5-a]pyrimidine-3-carboxamido)methyl)benzofuran-7-carboxylate]	3.8	4.2		
O=C(OCC(F)(F)F)c1cc(F)cc2cc(CN3CCc4ccncc4C3=O)oc12 [EXAMPLE 228, 2,2,2-Trifluoroethyl 5-fluoro-2-((1-oxo-3,4-dihydro-2,7-naphthyridin-2(1H)-yl)methyl)benzofuran-7-carboxylate]	6.1	6.5		
O=C(NCc1cc2cc(F)cc(C(=O)OCC(F)(F)F)c2o1)c1cnccn1 [EXAMPLE 229, 2,2,2-Trifluoroethyl 5-fluoro-2-((pyrazine-2-carboxamido)methyl)benzofuran-7-carboxylate]	4.2	4.2		
O=C(OC1COC1)c1cc(F)cc2cc(CNC(=O)c3cnn4cccnc34)oc12 [EXAMPLE 233, Oxetan-3-yl 5-fluoro-2-((pyrazolo[1,5-a]pyrimidine-3-carboxamido)methyl)benzofuran-7-carboxylate]	1.7	2		
O=C(OC1CC(F)(F)C1)c1cc(F)cc2cc(CNC(=O)c3cnn4cccnc34)oc12 [EXAMPLE 236, 3,3-Difluorocyclobutyl 5-fluoro-2-((pyrazolo[1,5-a]pyrimidine-3-carboxamido)methyl)benzofuran-7-carboxylate]	1.3	1.8		
O=C(OC(C(F)(F)F)C(F)(F)F)c1cc(F)cc2cc(CNC(=O)c3cnn4cccnc34)oc12 [EXAMPLE 238, 1,1,1,3,3,3-Hexafluoropropan-2-yl 5-fluoro-2-((pyrazolo[1,5-a]pyrimidine-3-carboxamido)methyl)benzofuran-7-carboxylate]	1.6	1.7		
N#CC1CC(OC(=O)c2cc(Cl)cc3cc(CNC(=O)c4cnn5cccnc45)oc23)C1 (centres unmarked) [EXAMPLE 241, 3-Cyanocyclobutyl 5-chloro-2-((pyrazolo[1,5-a]pyrimidine-3-carboxamido)methyl)benzofuran-7-carboxylate]	2.3	2.3		
COC[C@@H](C)OC(=O)c1cc(Cl)cc2cc(CNC(=O)c3cnn4cccnc34)oc12 [EXAMPLE 242, (R)-1-Methoxypropan-2-yl 5-chloro-2-((pyrazolo[1,5-a]pyrimidine-3-carboxamido)methyl)benzofuran-7-carboxylate]	2.4	2.1		
O=C(OC1CCCC1)c1cc(Cl)cc2cc(CNC(=O)c3cnn4cccnc34)oc12 [EXAMPLE 243, Cyclopentyl 5-chloro-2-((pyrazolo[1,5-a]pyrimidine-3-carboxamido)methyl)benzofuran-7-carboxylate]	1.6	1.9		
O=C(OC1CCCCC1)c1cc(Cl)cc2cc(CNC(=O)c3cnn4cccnc34)oc12 [EXAMPLE 244, Cyclohexyl 5-chloro-2-((pyrazolo[1,5-a]pyrimidine-3-carboxamido)methyl)benzofuran-7-carboxylate]	2	1.9		
O=C(OC1CC(F)(F)C1)c1cc(Cl)cc2cc(CNC(=O)c3cnn4cccnc34)oc12 [EXAMPLE 245, 3,3-Difluorocyclobutyl 5-chloro-2-((pyrazolo[1,5-a]pyrimidine-3-carboxamido)methyl)benzofuran-7-carboxylate]	1.8	1		
CC(C)(C)OC(=O)N1CC(OC(=O)c2cc(Cl)cc3cc(CNC(=O)c4cnn5cccnc45)oc23)C1 [EXAMPLE 247, Tert-butyl 3-((5-chloro-2-((pyrazolo[1,5-a]pyrimidine-3-carboxamido)methyl)benzofuran-7-carbonyl)oxy)azetidine-1-carboxylate]	9	13		
O=C(OC1CNC1)c1cc(Cl)cc2cc(CNC(=O)c3cnn4cccnc34)oc12 [EXAMPLE 248, Azetidin-3-yl 5-chloro-2-((pyrazolo[1,5-a]pyrimidine-3-carboxamido)methyl)benzofuran-7-carboxylate]	73	98		
O=C(OCCOCCO)c1cc(Cl)cc2cc(CNC(=O)c3cnn4cccnc34)oc12 [EXAMPLE 249, 2-(2-Hydroxyethoxy)ethy1 5-chloro-2-((pyrazolo[1,5-a]pyrimidine-3-carboxamido)methyl)benzofuran-7-carboxylate]	2.4	2.5		
O=C(OCc1cccc(CO)c1)c1cc(Cl)cc2cc(CNC(=O)c3cnn4cccnc34)oc12 [EXAMPLE 252, 3-(Hydroxymethyl)benzyl 5-chloro-2-((pyrazolo[1,5-a]pyrimidine-3-carboxamido)methyl)benzofuran-7-carboxylate]	6.4	5.4		
O=C(OCC(F)(F)C(F)(F)C(F)(F)CO)c1cc(Cl)cc2cc(CNC(=O)c3cnn4cccnc34)oc12 [EXAMPLE 253, 2,2,3,3,4,4-Hexafluoro-5-hydroxypentyl 5-chloro-2-((pyrazolo[1,5-a]pyrimidine-3-carboxamido)methyl)benzofuran-7-carboxylate]			0.96	0.93

Second part, led by results:

EC50 [1, 3] [µM]	EC50 [2, 4] [µM]	Compound	EC50 [1] [µM]	EC50 [2] [µM]
0.67	0.62	O=C(OCC(F)(F)F)c1cccc2c(Cl)c(CNC(=O)c3cnn4cccnc34)oc12 [EXAMPLE 223, 2,2,2-Trifluoroethyl 3-chloro-2-((pyrazolo[1,5-a]pyrimidine-3-carboxamido)methyl)benzofuran-7-carboxylate]		
0.93	0.95	O=C(OCC(F)(F)F)c1cc(F)cc2cc(CNC(=O)c3cnc4cccnn34)oc12 [EXAMPLE 230, 2,2,2-Trifluoroethyl 5-fluoro-2-((imidazo[1,2-b]pyridazine-3-carboxamido)methyl)benzofuran-7-carboxylate]		
0.5	0.65	O=C(OCC(F)(F)F)c1cc(F)cc2cc(CNC(=O)c3cnn4cccnc34)oc12 [EXAMPLE 231, 2,2,2-Trifluoroethyl 5-fluoro-2-((pyrazolo[1,5-a]pyrimidine-3-carboxamido)methyl)benzofuran-7-carboxylate]		
1	0.92	CC(C)OC(=O)c1cc(F)cc2cc(CNC(=O)c3cnn4cccnc34)oc12 [EXAMPLE 232, Isopropyl 5-fluoro-2-((pyrazolo[1,5-a]pyrimidine-3-carboxamido)methyl)benzofuran-7-carboxylate]		
1.1	1.1	O=C(OC1CCC1)c1cc(F)cc2cc(CNC(=O)c3cnn4cccnc34)oc12 [EXAMPLE 234, Cyclobutyl 5-fluoro-2-((pyrazolo[1,5-a]pyrimidine-3-carboxamido)methyl)benzofuran-7-carboxylate]		
0.69	0.68	O=C(OCC(F)F)c1cc(F)cc2cc(CNC(=O)c3cnn4cccnc34)oc12 [EXAMPLE 235, 2,2-Difluoroethyl 5-fluoro-2-((pyrazolo[1,5-a]pyrimidine-3-carboxamido)methyl)benzofuran-7-carboxylate]		
1.2	1.2	O=C(OC(CF)CF)c1cc(F)cc2cc(CNC(=O)c3cnn4cccnc34)oc12 [EXAMPLE 237, 1,3-Difluoropropan-2-yl 5-fluoro-2-((pyrazolo[1,5-a]pyrimidine-3-carboxamido)methyl)benzofuran-7-carboxylate]		
0.53	0.39	O=C(OCC(F)(F)F)c1cc(Cl)cc2cc(CNC(=O)c3cnn4cccnc34)oc12 [EXAMPLE 239, 2,2,2-Trifluoroethyl 5-chloro-2-((pyrazolo[1,5-a]pyrimidine-3-carboxamido)methyl)benzofuran-7-carboxylate]		
0.78	0.61	CC(C)OC(=O)c1cc(Cl)cc2cc(CNC(=O)c3cnn4cccnc34)oc12 [EXAMPLE 240, Isopropyl 5-chloro-2-((pyrazolo[1,5-a]pyrimidine-3-carboxamido)methyl)benzofuran-7-carboxylate]		
1.1	1	O=C(OC(CF)CF)c1cc(Cl)cc2cc(CNC(=O)c3cnn4cccnc34)oc12 [EXAMPLE 246, 1,3-Difluoropropan-2-yl 5-chloro-2-((pyrazolo[1,5-a]pyrimidine-3-carboxamido)methyl)benzofuran-7-carboxylate]		
1.2	0.62	O=C(OCCCCO)c1cc(Cl)cc2cc(CNC(=O)c3cnn4cccnc34)oc12 [EXAMPLE 250, 4-Hydroxybutyl 5-chloro-2-((pyrazolo[1,5-a]pyrimidine-3-carboxamido)methyl)benzofuran-7-carboxylate]		
0.93	1	O=C(OCC(F)(F)C(F)(F)CO)c1cc(Cl)cc2cc(CNC(=O)c3cnn4cccnc34)oc12 [EXAMPLE 251, 2,2,3,3-Tetrafluoro-4-hydroxybutyl 5-chloro-2-((pyrazolo[1,5-a]pyrimidine-3-carboxamido)methyl)benzofuran-7-carboxylate]		
